Key:
Assay in all cases: TMT LC-MSMS of 11-labelled proteins
Assay type in all cases: cell-based
[1] = target: Argininosuccinate synthase (ASS1) (Homo sapiens, UniProt P00966); settings: sheet Merged, SKBR3 cells
From the text: (§1) The labelled proteins were enriched by immunoprecipitation with an anti-fluorescein antibody and tryptically digested in gel. Digested peptides were modified with Light- (L-), Medium- (M-), or Heavy- (H-) TMT reagent for samples treated with 11, 11 with PU-H71 (as competitive condition), or DMSO (vehicle), respectively, and mixed in a 1:1:1 ratio for LC-MSMS analysis. We performed three experimental replicates, in which proteins detected and quantified at least twice were selected as identified proteins. According to the related approach of Cravatt et al[44], the proteins having L/H (11/DMSO) ratios >5 were defined as 11-labelled proteins. […] On the basis of these criteria, we identified 6 proteins that react with 11, including three ligand-specific targets (Hsp90α (HSP90AA1), Hsp90β (HSP90AB1), and Grp94 (HSP90B1)) and three off-targets (Trifunctional enzyme subunit α (HADHA), Tubulin-α (TUBA1B), and ADP/ATP translocase 3 (SLC25A6)) (Fig. 5d, e and Supplementary Data 1). […] Grp94, a HSP90 isomer, was previously reported to be a PU-H71 specific target. TRAP-1, another Hsp90 isomer that can bind PU-H71, on the other hand, was not identified as 11-target by our criteria.
(§2) SKBR3 human breast cancer cells (2.0 × 10^6 cells) were seeded on a 10 cm dish and cultured for 3 days in McCoy’s 5A in a 5% CO2 humidified chamber at 37 °C. […] As competitive experiments, the labelling was conducted in the presence of PU-H71 (10 µM). After labelling, the cells were washed twice with PBS, and lysed with RIPA buffer. […] The supernatant was mixed with chilled acetone and incubated overnight at −80 °C. The protein precipitates were solubilized by sonication in 1 mL of RIPA buffer containing 1% SDS, and then 10-fold diluted with RIPA buffer to reduce SDS concentration to c.a. 0.1%. The protein solution (containing 1 mg of protein) was mixed with Protein G Sepharose 4 Fast Flow (GE Healthcare) and rotated at 4 °C for 1 h. After removal of the beads, the remaining supernatant was mixed with anti-fluorescein antibody (Abcam, ab19491, 7:10000) and rotated at 4 °C for 1 h, followed by addition of fresh Protein G Sepharose 4 Fast Flow and further incubation at 4 °C for 4 h. The beads were washed five times with RIPA buffer and once with PBS. Proteins were eluted from the beads by addition of 2 × sample buffer containing 100 mM DTT and boiling at 95 °C for 5 min. The samples were subjected to a 7.5% SDS–PAGE gel (Mini-PROTEAN TGX Gels, BioRad), and electrophoresed as the migration distance of dye front is about 10 mm. Each lane was excised (height, 10 mm), and treated with a 47.5% methanol / 47.5% pure water / 5% acetic acid for 20 min, a 50% methanol / 50% pure water for 10 min, and in pure water for 10 min. The gel pieces were dehydrated with 100% acetonitrile, and then swelled with 200 μL of 100 mM TEAB (triethylamine bicarbonate) buffer containing 10 mM DTT and heated at 56 °C for 30 min. The solutions were replaced with 200 µL of 100 mM TEAB buffer containing 55 mM iodoacetamide and incubated for 45 min in the dark. The gel pieces were washed with 100 mM TEAB buffer and dehydrated in acetonitrile. This step was repeated once. The gels were reswelled in 100 mM TEAB buffer containing 10 ng/μL Sequencing Grade Trypsin (Promega) and incubated overnight at 37 °C. To the gels, 50 μL of an extraction solution (50% acetonitrile, 0.1% TFA) was added. After 10 min incubation, the supernatants were collected to new tubes, and this process was repeated twice. Extracted peptides were dried in vacuo and reconstituted with 25 μL of 100 mM TEAB buffer.

[2] = target: Tubulin alpha-1B chain (TUBA1B) (Homo sapiens, UniProt P68363)
Sequence of Tubulin alpha-1B chain (TUBA1B) (P68363 whole entry): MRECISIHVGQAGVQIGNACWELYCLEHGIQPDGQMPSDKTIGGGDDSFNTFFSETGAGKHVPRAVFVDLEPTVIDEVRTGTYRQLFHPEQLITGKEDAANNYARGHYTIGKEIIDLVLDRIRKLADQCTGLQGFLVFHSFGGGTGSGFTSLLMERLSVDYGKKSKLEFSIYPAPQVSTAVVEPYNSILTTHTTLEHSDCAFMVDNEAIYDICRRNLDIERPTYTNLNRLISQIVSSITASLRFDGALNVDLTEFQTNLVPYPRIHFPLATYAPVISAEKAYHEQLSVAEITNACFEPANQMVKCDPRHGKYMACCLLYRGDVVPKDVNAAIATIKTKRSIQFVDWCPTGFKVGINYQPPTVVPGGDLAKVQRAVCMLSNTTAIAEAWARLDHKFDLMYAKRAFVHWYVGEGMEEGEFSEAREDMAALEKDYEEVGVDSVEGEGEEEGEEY
Sequence of Tubulin alpha-1B chain (TUBA1B) (P07437 whole entry partner): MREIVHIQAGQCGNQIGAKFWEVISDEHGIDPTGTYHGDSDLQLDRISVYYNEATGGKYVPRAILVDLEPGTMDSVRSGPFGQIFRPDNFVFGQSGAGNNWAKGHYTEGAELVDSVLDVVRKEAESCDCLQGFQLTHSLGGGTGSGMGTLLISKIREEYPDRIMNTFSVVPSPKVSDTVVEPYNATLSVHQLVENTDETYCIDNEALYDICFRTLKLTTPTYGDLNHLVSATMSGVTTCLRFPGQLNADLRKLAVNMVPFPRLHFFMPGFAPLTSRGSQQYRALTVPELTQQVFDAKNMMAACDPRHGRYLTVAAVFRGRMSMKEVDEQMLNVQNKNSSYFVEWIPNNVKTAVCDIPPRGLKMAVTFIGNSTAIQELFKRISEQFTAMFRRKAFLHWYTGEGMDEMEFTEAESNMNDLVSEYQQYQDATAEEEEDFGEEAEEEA
From the text: as §1, §2

[3] = target: puromycin-sensitive aminopeptidase (NPEPPS) (Homo sapiens, UniProt P55786)
Sequence of puromycin-sensitive aminopeptidase (NPEPPS) (P55786 whole entry): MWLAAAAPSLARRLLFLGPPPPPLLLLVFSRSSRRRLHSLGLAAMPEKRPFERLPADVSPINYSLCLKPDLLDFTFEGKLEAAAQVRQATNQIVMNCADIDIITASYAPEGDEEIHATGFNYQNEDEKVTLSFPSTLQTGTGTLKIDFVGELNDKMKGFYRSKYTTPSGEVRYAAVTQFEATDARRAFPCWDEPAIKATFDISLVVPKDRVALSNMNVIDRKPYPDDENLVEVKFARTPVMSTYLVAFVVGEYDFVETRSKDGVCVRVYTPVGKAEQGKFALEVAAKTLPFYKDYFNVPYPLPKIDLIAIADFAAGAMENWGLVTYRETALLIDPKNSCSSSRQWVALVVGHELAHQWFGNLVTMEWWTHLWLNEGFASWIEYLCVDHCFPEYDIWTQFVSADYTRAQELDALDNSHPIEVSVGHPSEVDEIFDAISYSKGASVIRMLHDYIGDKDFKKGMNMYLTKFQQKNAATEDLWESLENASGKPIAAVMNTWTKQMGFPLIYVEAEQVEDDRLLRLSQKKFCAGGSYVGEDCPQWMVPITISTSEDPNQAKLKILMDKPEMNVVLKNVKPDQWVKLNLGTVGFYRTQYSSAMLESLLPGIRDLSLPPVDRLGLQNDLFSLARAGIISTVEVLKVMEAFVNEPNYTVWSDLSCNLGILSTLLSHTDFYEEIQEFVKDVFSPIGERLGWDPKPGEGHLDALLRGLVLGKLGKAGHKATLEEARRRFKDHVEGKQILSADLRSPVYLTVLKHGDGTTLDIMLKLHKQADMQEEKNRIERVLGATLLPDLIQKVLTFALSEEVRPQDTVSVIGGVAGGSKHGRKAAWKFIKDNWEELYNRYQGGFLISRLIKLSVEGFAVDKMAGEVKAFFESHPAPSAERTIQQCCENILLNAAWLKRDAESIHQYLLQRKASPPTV
From the text: as §1, §2

Peroxiredoxin-4 (PRDX4) = target: T1, Peroxiredoxin-4 (PRDX4) (Homo sapiens, UniProt Q13162)
T1 sequence (Q13162 38-271): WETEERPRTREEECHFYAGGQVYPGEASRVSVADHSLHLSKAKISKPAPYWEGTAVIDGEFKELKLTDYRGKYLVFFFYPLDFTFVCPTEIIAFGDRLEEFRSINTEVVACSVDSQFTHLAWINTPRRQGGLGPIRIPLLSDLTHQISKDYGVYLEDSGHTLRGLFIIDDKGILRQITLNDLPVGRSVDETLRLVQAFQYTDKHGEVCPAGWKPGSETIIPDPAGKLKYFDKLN
From the text: (§3) Supplement 41467_2018_4343_MOESM4_ESM.xlsx, sheet "Exp3" | column: Abundance Ratio: (11) / (11 with PU-H71); Abundance Ratio: (11) / (DMSO); Abundances (Grouped): 11; Abundances (Grouped): 11 with PU-H71

protein MAL2 (MAL2) = protein MAL2 (MAL2) (Homo sapiens, UniProt Q969L2)
Sequence of protein MAL2 (MAL2) (Q969L2 whole entry): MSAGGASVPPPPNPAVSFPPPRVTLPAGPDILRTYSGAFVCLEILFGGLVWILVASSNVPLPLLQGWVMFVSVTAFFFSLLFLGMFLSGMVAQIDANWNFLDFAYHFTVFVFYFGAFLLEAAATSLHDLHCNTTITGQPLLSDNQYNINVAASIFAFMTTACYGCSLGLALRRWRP
From the text: as §3

[4] = target: Dolichyl-diphosphooligosaccharide--protein glycosyltransferase subunit 1 (RPN1) (Homo sapiens, UniProt P04843)
Sequence of Dolichyl-diphosphooligosaccharide--protein glycosyltransferase subunit 1 (RPN1) (P04843 24-607): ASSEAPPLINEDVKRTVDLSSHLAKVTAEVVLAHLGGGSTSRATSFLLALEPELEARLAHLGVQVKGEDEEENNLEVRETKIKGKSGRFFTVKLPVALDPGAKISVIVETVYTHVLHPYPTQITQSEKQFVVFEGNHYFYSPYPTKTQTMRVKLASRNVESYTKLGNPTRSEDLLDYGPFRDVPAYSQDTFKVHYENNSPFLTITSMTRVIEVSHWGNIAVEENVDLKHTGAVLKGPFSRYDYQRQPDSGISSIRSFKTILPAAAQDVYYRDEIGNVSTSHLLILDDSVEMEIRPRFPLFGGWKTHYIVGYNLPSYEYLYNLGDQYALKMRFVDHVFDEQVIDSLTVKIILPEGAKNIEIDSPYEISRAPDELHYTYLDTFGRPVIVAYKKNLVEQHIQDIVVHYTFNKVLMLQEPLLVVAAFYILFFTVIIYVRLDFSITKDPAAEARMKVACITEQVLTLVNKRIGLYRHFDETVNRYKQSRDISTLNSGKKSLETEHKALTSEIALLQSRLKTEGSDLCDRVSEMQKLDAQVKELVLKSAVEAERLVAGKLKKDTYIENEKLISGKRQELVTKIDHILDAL
Sequence of Dolichyl-diphosphooligosaccharide--protein glycosyltransferase subunit 1 (RPN1) (P39656 43-456 partner): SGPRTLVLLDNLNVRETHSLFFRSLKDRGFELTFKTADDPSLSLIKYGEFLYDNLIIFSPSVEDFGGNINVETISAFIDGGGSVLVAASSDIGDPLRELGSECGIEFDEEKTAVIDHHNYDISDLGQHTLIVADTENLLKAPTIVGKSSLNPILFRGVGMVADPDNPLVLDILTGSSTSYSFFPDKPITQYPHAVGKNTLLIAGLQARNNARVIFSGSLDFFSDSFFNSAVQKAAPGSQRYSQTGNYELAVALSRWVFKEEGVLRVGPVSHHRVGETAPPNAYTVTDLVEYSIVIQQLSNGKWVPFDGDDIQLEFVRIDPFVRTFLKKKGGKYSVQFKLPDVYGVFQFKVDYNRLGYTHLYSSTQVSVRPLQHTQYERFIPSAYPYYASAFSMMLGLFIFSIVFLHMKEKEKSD
Sequence of Dolichyl-diphosphooligosaccharide--protein glycosyltransferase subunit 1 (RPN1) (P04844 23-631 partner): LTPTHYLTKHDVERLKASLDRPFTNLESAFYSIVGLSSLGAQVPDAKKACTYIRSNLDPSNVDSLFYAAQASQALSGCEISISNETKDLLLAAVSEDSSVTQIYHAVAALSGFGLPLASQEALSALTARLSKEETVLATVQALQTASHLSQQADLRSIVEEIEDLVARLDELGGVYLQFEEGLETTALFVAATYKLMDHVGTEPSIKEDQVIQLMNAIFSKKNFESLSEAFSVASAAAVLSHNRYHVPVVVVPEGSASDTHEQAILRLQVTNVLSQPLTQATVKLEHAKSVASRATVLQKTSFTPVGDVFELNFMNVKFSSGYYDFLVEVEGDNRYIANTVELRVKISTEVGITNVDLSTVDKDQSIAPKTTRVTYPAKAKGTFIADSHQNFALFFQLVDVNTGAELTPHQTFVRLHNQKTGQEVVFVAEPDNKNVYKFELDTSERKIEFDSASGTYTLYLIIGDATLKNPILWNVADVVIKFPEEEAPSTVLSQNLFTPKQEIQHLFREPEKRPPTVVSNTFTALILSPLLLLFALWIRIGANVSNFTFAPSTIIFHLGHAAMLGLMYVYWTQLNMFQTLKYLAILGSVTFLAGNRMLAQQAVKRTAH
Sequence of Dolichyl-diphosphooligosaccharide--protein glycosyltransferase subunit 1 (RPN1) (P61803 whole entry partner): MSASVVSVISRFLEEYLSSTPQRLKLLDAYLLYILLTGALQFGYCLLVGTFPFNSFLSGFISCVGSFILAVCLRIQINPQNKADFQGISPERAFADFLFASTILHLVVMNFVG
Sequence of Dolichyl-diphosphooligosaccharide--protein glycosyltransferase subunit 1 (RPN1) (P61165 whole entry partner): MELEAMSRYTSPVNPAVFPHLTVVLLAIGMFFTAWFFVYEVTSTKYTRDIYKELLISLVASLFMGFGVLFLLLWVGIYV
Sequence of Dolichyl-diphosphooligosaccharide--protein glycosyltransferase subunit 1 (RPN1) (P0C6T2 whole entry partner): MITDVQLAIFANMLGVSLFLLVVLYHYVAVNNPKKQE
From the text: as §3

[5] = sheet Exp1, SKBR3 cells, 11 0.5 µM 3 h vs DMSO
[6] = sheet Exp1, SKBR3 cells, 11 0.5 µM 3 h vs with PU-H71 10 µM
[7] = sheet Merged, SKBR3 cells, 11 0.5 µM 3 h vs DMSO
[8] = sheet Merged, SKBR3 cells, 11 0.5 µM 3 h vs with PU-H71 10 µM

Sequence of Argininosuccinate synthase (ASS1) (P00966 whole entry): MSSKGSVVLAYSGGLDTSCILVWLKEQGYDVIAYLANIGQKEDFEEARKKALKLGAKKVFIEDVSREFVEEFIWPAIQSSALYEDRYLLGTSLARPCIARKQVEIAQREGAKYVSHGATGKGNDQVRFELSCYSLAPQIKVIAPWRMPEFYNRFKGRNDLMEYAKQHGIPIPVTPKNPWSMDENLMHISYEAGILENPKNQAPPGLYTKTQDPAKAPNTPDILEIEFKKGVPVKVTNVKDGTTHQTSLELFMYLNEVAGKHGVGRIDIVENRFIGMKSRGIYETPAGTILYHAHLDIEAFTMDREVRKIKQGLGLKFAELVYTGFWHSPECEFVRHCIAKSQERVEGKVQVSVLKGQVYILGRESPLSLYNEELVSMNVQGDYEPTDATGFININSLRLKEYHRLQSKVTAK

Abundance Ratio: (11) / (DMSO) ([1]; 11 0.5 µM 3 h vs DMSO): 2.736
Abundance Ratio: (11) / (11 with PU-H71) ([1]; 11 0.5 µM 3 h vs with PU-H71 10 µM): 0.837
Abundance Ratio: (11) / (11 with PU-H71) ([2]; Exp3, TUBA1B): 0.849
Abundance Ratio: (11) / (DMSO) ([2]; Exp3, TUBA1B): 4.864
Abundances (Grouped): 11 ([2]; Exp3, TUBA1B): 236.9
Abundances (Grouped): 11 with PU-H71 ([2]; Exp3, TUBA1B): 279
Abundance Ratio: (11) / (DMSO) [2, 5]: 6.965
Abundance Ratio: (11) / (11 with PU-H71) [2, 6]: 0.862
Abundance Ratio: (11) / (11 with PU-H71) ([2]; sheet Exp2, TUBA1B): 0.827
Abundance Ratio: (11) / (DMSO) ([2]; sheet Exp2, TUBA1B): 7.231
Abundances (Grouped): 11 ([2]; sheet Exp2, TUBA1B): 197.4
Abundances (Grouped): 11 with PU-H71 ([2]; sheet Exp2, TUBA1B): 238.8
Abundance Ratio: (11) / (DMSO) [2, 7]: 6.965
Abundance Ratio: (11) / (11 with PU-H71) [2, 8]: 0.862
Abundance Ratio: (11) / (11 with PU-H71) ([3]; Exp3, NPEPPS): 0.586
Abundance Ratio: (11) / (DMSO) ([3]; Exp3, NPEPPS): 3.067
Abundances (Grouped): 11 ([3]; Exp3, NPEPPS): 616.5
Abundances (Grouped): 11 with PU-H71 ([3]; Exp3, NPEPPS): 1052.4
Abundance Ratio: (11) / (DMSO) [3, 5]: 3.569
Abundance Ratio: (11) / (11 with PU-H71) [3, 6]: 0.575
Abundance Ratio: (11) / (11 with PU-H71) ([3]; sheet Exp2, NPEPPS): 0.592
Abundance Ratio: (11) / (DMSO) ([3]; sheet Exp2, NPEPPS): 3.192
Abundances (Grouped): 11 ([3]; sheet Exp2, NPEPPS): 968.9
Abundances (Grouped): 11 with PU-H71 ([3]; sheet Exp2, NPEPPS): 1636.1
Abundance Ratio: (11) / (DMSO) [3, 7]: 3.569
Abundance Ratio: (11) / (11 with PU-H71) [3, 8]: 0.575
Abundance Ratio: (11) / (11 with PU-H71) (Peroxiredoxin-4 (PRDX4); Exp3): 0.973
Abundance Ratio: (11) / (DMSO) (Peroxiredoxin-4 (PRDX4); Exp3): 2.612
Abundances (Grouped): 11 (Peroxiredoxin-4 (PRDX4); Exp3): 25.6
Abundances (Grouped): 11 with PU-H71 (Peroxiredoxin-4 (PRDX4); Exp3, with PU-H71): 26.3
Abundance Ratio: (11) / (11 with PU-H71) (protein MAL2 (MAL2); Exp3): 0.751
Abundance Ratio: (11) / (DMSO) (protein MAL2 (MAL2); Exp3): 5.099
Abundances (Grouped): 11 (protein MAL2 (MAL2); Exp3): 71.9
Abundances (Grouped): 11 with PU-H71 (protein MAL2 (MAL2); Exp3, with PU-H71): 95.8
Abundance Ratio: (11) / (11 with PU-H71) ([4]; Exp3): 0.849
Abundance Ratio: (11) / (DMSO) ([4]; Exp3): 2.221
Abundances (Grouped): 11 ([4]; Exp3): 38.2
Abundances (Grouped): 11 with PU-H71 ([4]; Exp3, with PU-H71): 45
SMILES: CC(=O)Oc1ccc2c(c1)Oc1cc(OC(C)=O)ccc1C21OC(=O)c2cc(C(=O)NCCOCCOCCNC(=O)CCCC(=O)N(CC#N)S(=O)(=O)c3ccc(C(=O)NCCCn4c(Sc5cc6c(cc5I)OCO6)nc5c(N)ncnc54)cc3)ccc21 [compound 11]
